Source: patent US20220401408A1, “COMPOSITIONS AND METHODS FOR RESCUING RETINAL AND CHOROIDAL STRUCTURE AND FUNCTION” (AUCKLAND UNISERVICES LIMITED, priority 2019, published 2022)

Test system: light damaged rats
Test: Optical coherence tomography (OCT) of retinal layers and choroid in light damage model
Type: in vivo, Sprague Dawley (SD) rats
Procedure: Retina Light Damage Model of Dry Age-Related Macular Degeneration—The intense light damage model was prepared and carried out as described in previous studies. Mat Nor N, Guo C X, Rupenthal ID, Chen Y S, Green C R, Acosta M L. Sustained Connexin43 Mimetic Peptide Release From Loaded Nanoparticles Reduces Retinal and Choroidal Photodamage. Invest Ophthalmol Vis Sci. 2018; 59:3682-93; Guo C X, Mat Nor M N, Danesh-Meyer H V, Vessey K A, Fletcher E L, O'Carroll S J, et al. Connexin43 Mimetic Peptide Improves Retinal Function and Reduces Inflammation in a Light-Damaged Albino Rat Model. Invest Ophthalmol Vis Sci. 2016; 57:3961-73; Guo C X, Tran H, Green C R, Danesh-Meyer H V, Acosta M L. Gap junction proteins in the light-damaged albino rat. Mol Vis. 2014; 20:670-82; Noell W K, Walker V S, Kang B S, Berman S. Retinal damage by light in rats. Invest Ophthalmol. 1966; 5:450-73. The light damage rat model was selected as it allows direct comparison with this and other drugs. Kim Y, Griffin J M, Nor M N M, Zhang J, Freestone P S, Danesh-Meyer H V, et al. Tonabersat Prevents Inflammatory Damage in the Central Nervous System by Blocking Connexin43 Hemichannels. Neurotherapeutics. 2017; 14:1148-65; Mat Nor N, Guo C X, Rupenthal ID, Chen Y S, Green C R, Acosta M L, supra; Guo C X, Mat Nor M N, Danesh-Meyer H V, Vessey K A, Fletcher E L, O'Carroll S J, et al., supra. […] All experimental procedures were approved by the University of Auckland Animal Ethics Committee, approval No. 001462 and comply with the Association for Research in Vision and Ophthalmology (ARVO) statement for the use of animals in eye research. Six to eight-week old albino Sprague Dawley (SD) rats (200-250 g; male or female) were used. Adult SD rats were exposed to continuous bright light for 24 hours, consistently starting at 9:00 am to minimize possible time-of-day variability. Light exposure was to two animals at a time to prevent rats from taking cover using each other as a shield. The LD protocol and intervention was repeated until the number of individuals for each dose group was obtained (n=7 per group). The light luminance was 2700 lux, generated using fluorescent lamps (Philips Master TLD 18W/965; Koninklijke Philips Electronics N.V., China) directly above the animal cages. The lamps were cool and emitted broadband light, from 380 to 760 nm wavelength, with the average intensity at the top of the cage being 120 W/m2. Animals were free to move within the cage with access to food and water ad libidum. Baseline electroretinography (ERG) readings and optical coherence tomography (OCT) images were collected prior to the light damage. After light exposure, animals were returned to normal light-dark cycle conditions (12 hours light, 174 lux and 12 hours darkness, <62 lux) for 24 hours, 1 week or 2 weeks (and for one group 3 months).
Tonabersat treatment of light damaged rats—LD rats were randomly assigned to low, middle or high dose of tonabersat (n=7 per group). The mixture of tonabersat in peanut butter was prepared fresh for each experiment. Three oral tonabersat doses were tested (n=7 per group) with follow up to 2 weeks post-injury, and the highest dose group then split with three animals taken for histological analysis, and four animals followed to 3 months post-injury. There was a ten-animal vehicle only control group. The group of rats that were kept for 3 months were maintained in separate cages for drug or vehicle-treated animals, but were kept under the same light conditions. Tonabersat was fed to animals in peanut butter at 0.26 mg/kg (on average 0.08 mg delivered, estimated circulating concentration 10 μM), 0.8 mg/kg (average of 0.24 mg delivered; 30 μM circulating) or 2.4 mg/kg (on average 0.72 mg delivered; 90 μM circulating) following consideration of previous unsuccessful human trial dosing levels. Silberstein S D. Tonabersat, a novel gap-junction modulator for the prevention of migraine. Cephalalgia. […]

[1] = 2.4 mg/kg oral, 3 months post treatment, p<0.001
[2] = all three oral doses, 24 hours, 1 week and 2 weeks post light damage

CC(=O)c1ccc2c(c1)[C@H](NC(=O)c1ccc(F)c(Cl)c1)[C@H](O)C(C)(C)O2 [tonabersat, N-[(3S,4S)-6-acetyl-3-hydroxy-2,2-dimethyl-3,4-dihydrochromen-4-yl]-3-chloro-4-fluorobenzamide]
ONL thickness compared to same animals prior to light damage (2.4 mg/kg oral, 3 months): no difference
choroidal thickness compared to same rats prior to light damage (2.4 mg/kg oral, 3 months): no difference
choroidal thickness compared to vehicle treatment group [1]: significantly preserved
retinal thickness compared to vehicle treatment group [1]: significantly preserved
INL thickness compared to same animals prior to light damage (2.4 mg/kg oral, 3 months, p<0.05): slightly reduced thickness
choroidal thickness (OCT) [2]: significantly preserved
retinal thickness (OCT) [2]: significantly preserved
thinning in the ONL or choroid (lowest and middle dose (0.26, 0.8 mg/kg), up to 2 weeks post light damage): some thinning at the lowest and middle dose, it was not significant
